Reference: patent EP2161029A1, “Composition comprising peptides” (Unilever N.V., priority 2008, dated 2010)
Peptide text beside a SMILES is read from it.

Experimental: The pH of simulated gastric fluid (SGF, 0.15 M NaCl, pH 2.5) was increased to 7.5 with […] (40 mM), and the following compounds were added to adjust the pH to 6.8 and simulate a duodenal-jejunal environment and create simulated small intestinal fluid (SIF): (i) a bile salt mixture containing equimolar quantities (0.125 M) of sodium taurocholate and glycodeoxycholic acid in NaHC03 (1 M), (ii) solutions of pancreatin from porcine pancreas (9 mg/mL) in water was prepared and added at approximately physiological ratios. The pH was adjusted to 6.8 with HCl (0.1 M). Peptides were dissolved in SIF at a final peptide concentration of 50 µM. Aliquots (1 mL) were prepared for sampling at different time points. Simulated intestinal digestion was carried out at 37°C, and aliquots (1 mL) were taken at 0, 5, 15, and 60 min after the start of the experiment. After peptide hydrolysis, digestive enzymes were inactivated at 95°C for 15 min and samples were cooled immediately on ice water and stored at -20 °C until further analysis.
Quantification of dipeptides derived from digestion were performed using a liquid chromatography multiple reaction ion monitoring-mass spectrometry (LC-MRM-MS) method as described van Platerink CJ, Janssen HG, Horsten R, Haverkamp J. Quantification of ACE inhibiting peptides in human plasma using high performance liquid chromatography-mass spectrometry. J Chromatogr B Analyt Technol Biomed Life Sci 2006,830:151-157. Peptide separation was performed on an Atlantis Hilic Silica column (2.1 x 150 mm, 3 µm particle size) and a Micromass Quattro-II (Milford MA, USA) with HP1100LC system (Hewlett-Packard, USA). The gradient started at 100% 0.1% trifluoro acetic acid in Milli-Q water and ended at 70% 0.1 % trifluoro acetic acid in acetonitrile. To support the ionization, a 70/30 mixture of propionic acid and propanol-2 was added postcolumn at a flow rate of 50 mL·min-1. All analyses were conducted on an Alliance 2795 HPLC (Waters, Milford MA, USA) combined with a Quattro Premier triple quadrupole mass spectrometer from the same supplier.
An intestinal stability data set consisting of 228 dipeptides was generated based on the results from the simulated digestion experiments. The area under the time - peptide concentration curve was calculated and used for further analysis and modelling. An ACE inhibitory dipeptide database consisting of 228 dipeptides was constructed.
For each peptide the relative stability (in % of initial dipeptide concentration) was plotted against time and the area under the curve (AUC) was calculated.

Structure (SMILES) | Stability observed AUC | AUC [units] | intestinal stability (in words)
NC(N)=NCCC[C@H](N)C(=O)N[C@@H](Cc1c[nH]c2ccccc12)C(=O)O [Arg-Trp] (H-Arg-Trp-OH) | 265±10 |  | 
NC(=O)C[C@H](N)C(=O)N[C@@H](Cc1ccc(O)cc1)C(=O)O [Asn-Tyr] (H-Asn-Tyr-OH) | 240±12 |  | 
N[C@@H](CC(=O)O)C(=O)N1CCC[C@H]1C(=O)O [DP, Asp-Pro] (H-Asp-Pro-OH) |  | > 5900 | 
N[C@@H](CC(=O)O)C(=O)N[C@@H](Cc1c[nH]c2ccccc12)C(=O)O [DW] (H-Asp-Trp-OH) |  |  | high intestinal stability
C[C@H](NC(=O)CN)C(=O)O [GA, Gly-Ala] (H-Gly-Ala-OH) |  | > 5900 | 
NCC(=O)N[C@@H](CS)C(=O)O [GC] (H-Gly-Cys-OH) |  |  | high intestinal stability
NCC(=O)N[C@@H](CC(N)=O)C(=O)O [GN] (H-Gly-Asn-OH) |  |  | high intestinal stability
CC(C)[C@H](NC(=O)CN)C(=O)O [GV, Gly-Val] (H-Gly-Val-OH) |  | > 5900 | 
N=C(N)NCCC[C@H](NC(=O)CN)C(=O)O [Gly-Arg] (H-Gly-Arg-OH) | 4622±1283 |  | 
O=C(O)[C@H](Cc1c[nH]c2ccccc12)NC(=O)[C@@H]1CCCN1 [PW] (H-Pro-Trp-OH) |  |  | high intestinal stability
N[C@@H](CO)C(=O)N1CCC[C@H]1C(=O)O [Ser-Pro] (H-Ser-Pro-OH) | 4887±639 |  | most intestinal stable dipeptide
NC(=O)C[C@H](NC(=O)[C@@H](N)Cc1c[nH]c2ccccc12)C(=O)O [Trp-Asn] (H-Trp-Asn-OH) | 4812±901 |  | 
N[C@@H](Cc1c[nH]c2ccccc12)C(=O)NCC(=O)O [Trp-Gly] (H-Trp-Gly-OH) | 4280±721 |  | 
N[C@@H](Cc1c[nH]c2ccccc12)C(=O)N[C@@H](Cc1c[nH]cn1)C(=O)O [Trp-His] (H-Trp-His-OH) | 2934±800 |  | 
N[C@@H](Cc1c[nH]c2ccccc12)C(=O)N1CCC[C@H]1C(=O)O [Trp-Pro] (H-Trp-Pro-OH) | 4606±129 |  | 
C[C@H](NC(=O)[C@@H](N)Cc1ccc(O)cc1)C(=O)O [Tyr-Ala] | 4593±1930 |  | 
N[C@@H](Cc1ccc(O)cc1)C(=O)NCC(=O)O [Tyr-Gly] | 3384±475 |  | high stability
N[C@@H](Cc1ccc(O)cc1)C(=O)N1CCC[C@H]1C(=O)O [Tyr-Pro] (H-Tyr-Pro-OH) | 4187±399 |  | 
CC(C)[C@H](N)C(=O)N[C@@H](Cc1ccc(O)cc1)C(=O)O [Val-Tyr] (H-Val-Tyr-OH) | 373±27 |  | 
